Experiments:
[1] = system: CD34+ cells from cord blood; assay: Expansion of cord blood-derived CD34+ cells in culture, fold change days 1 to 7 (flow cytometry); assay type: cell-based, human; details: relative to vehicle control (DMSO), 3% oxygen
Protocol: (§1) CD34+ cells from cord blood were purchased from STEMCELL Technologies. Primary human CD34+ cells were isolated by the supplier from cord blood samples using positive immunomagnetic separation techniques. Cells were thawed and gradually brought to room temperature. Samples were washed, then placed in overnight culture in StemSpan with 100 ng/ml each of FLT3L, TPO, SCF, and IL-6. Eighteen to twenty-four hours later (day 1), cells were counted and immunophenotyped (flow cytometry on an Invitrogen Attune N×T cytometer).
Approximately 1000 live cells were plated into each well of 96-well plates (total volume 200 μl); exact cell numbers dispensed per well were quantified with flow cytometry for later calculations.
Media for testing compounds of Formula I, except for compound 2.015, was prepared using StemSpan SFEM (STEMCELL Technologies). Media for testing compound 2.015 was prepared using Alpha-MEM without phenol red (Gibco) with 10% (v/v) heat inactivated fetal bovine serum (FBS). All other treatments are the same for all tested compounds. Culture conditions also included an antibiotic solution that includes penicillin, streptomycin, and amphotericin B to avoid contamination. Additional media components and concentrations used for the compounds tested are described in Table 2.
(§2) All incubations for this experiment took place at 3%˜ oxygen (controlled by nitrogen) and […]. Following seven days of culture, cells from wells were collected and phenotypes were analyzed (flow cytometry on an Invitrogen Attune N×T cytometer).
The graphs in FIG. 1-5 report the fold change in cells between days 1 and 7. Each point in the figures reports the average fold change of the indicated number of replicates at the noted concentration of the compound of Formula I tested. Error bars display the maximum and minimum fold change measured at that concentration. The dashed line reports the expansive effect of the base conditions (i.e. vehicle control).
Table 3, below, summarizes the relative expansive effects of Compounds 2.001 to 2.004 and 2.015 at the indicated concentration. It is calculated as shown below: […]

[2] = system: HSCs derived from cord blood; assay: Long-term (14 day) expansion of hematopoietic stem cells derived from cord blood; assay type: cell-based, human; details: 14 days in culture; Compound 2.001 at 10 μM, Compound 2.002 at 1 μM, Compound 2.003 at 10 μM
Protocol: as §1, §2
Cells were cultured to seven days as described in Example 5. Following seven days in culture, 25% of cells from selected wells were passaged to 12-well plates (2 ml total volume), with conditions for these wells prepared as on day 1. Wells selected were: Compound 2.001 at 10 μM, Compound 2.002 at 1 μM, Compound 2.003 at 10 μM, and base conditions with vehicle control (DMSO). Cells were then allowed seven further days of expansion prior to analysis at day 14. Cell numbers calculated at day 14 account for the passaging of the cells at day seven.

[3] = 2.819 μM compound, Alpha-MEM without phenol red with 10% FBS
[4] = 3.162 μM compound, StemSpan SFEM

Structure (SMILES)	expansion of HSCs from cord blood in extended culture [2]	CD34 effect (relative expansive effect on CD34+ cells) ([1]; 1 μM compound, StemSpan SFEM)	CD90 effect (relative expansive effect on CD34+/CD133+/CD90+ cells) ([1]; 1 μM compound, StemSpan SFEM)	other results
CC(=O)Nc1ccc2c(c1)[nH]c1ccccc12 [Compound 2.001, N-(9H-carbazol-2-yl)acetamide]	expand HSCs from cord blood for at least 14 days in culture	–	–	CD34 effect (relative expansive effect on CD34+ cells) ([1]; 10 μM compound, StemSpan SFEM): ++++ (1.8 ≤ × < 2.2); CD90 effect (relative expansive effect on CD34+/CD133+/CD90+ cells) ([1]; 10 μM compound, StemSpan SFEM): +++++ (2.2 ≤×)
CC(C)(C)C(=O)Nc1ccc2c(c1)oc1ccccc12 [Compound 2.004, 2,2-dimethyl-N-{8-oxatricyclo[7.4.0.0^2,7]trideca-1(13),2(7),3,5,9,11-hexaen-5-yl}propanamide]	–	+++ (1.6 ≤ × < 1.8)	++ (1.2 ≤ × < 1.6)	–
CC(C)(C)C(=O)Nc1ccc2c(c1)[nH]c1ccccc12 [Compound 2.002, N-(9H-carbazol-2-yl)-2,2-dimethylpropanamide]	expand HSCs from cord blood for at least 14 days in culture	++++ (1.8 ≤ × < 2.2)	++++ (1.8 ≤ × < 2.2)	–
COc1cc2c(cc1N)oc1ccccc12 [Compound 2.015]	–	–	–	CD34 effect (relative expansive effect on CD34+ cells) [1, 3]: + (1 < × < 1.2); CD90 effect (relative expansive effect on CD34+/CD133+/CD90+ cells) [1, 3]: + (1 < × < 1.2)
CC(=O)Nc1ccc2c(c1)oc1ccccc12 [Compound 2.003, N-{8-oxatricyclo[7.4.0.0^2,7]trideca-1(13),2(7),3,5,9,11-hexaen-5-yl}acetamide]	expand HSCs from cord blood for at least 14 days in culture	–	–	CD34 effect (relative expansive effect on CD34+ cells) [1, 4]: ++++ (1.8 ≤ × < 2.2); CD90 effect (relative expansive effect on CD34+/CD133+/CD90+ cells) [1, 4]: ++++ (1.8 ≤ × < 2.2)
